The assay addresses T1, Tissue alpha-L-fucosidase (Homo sapiens, UniProt P04066).
T1 sequence (P04066 whole entry): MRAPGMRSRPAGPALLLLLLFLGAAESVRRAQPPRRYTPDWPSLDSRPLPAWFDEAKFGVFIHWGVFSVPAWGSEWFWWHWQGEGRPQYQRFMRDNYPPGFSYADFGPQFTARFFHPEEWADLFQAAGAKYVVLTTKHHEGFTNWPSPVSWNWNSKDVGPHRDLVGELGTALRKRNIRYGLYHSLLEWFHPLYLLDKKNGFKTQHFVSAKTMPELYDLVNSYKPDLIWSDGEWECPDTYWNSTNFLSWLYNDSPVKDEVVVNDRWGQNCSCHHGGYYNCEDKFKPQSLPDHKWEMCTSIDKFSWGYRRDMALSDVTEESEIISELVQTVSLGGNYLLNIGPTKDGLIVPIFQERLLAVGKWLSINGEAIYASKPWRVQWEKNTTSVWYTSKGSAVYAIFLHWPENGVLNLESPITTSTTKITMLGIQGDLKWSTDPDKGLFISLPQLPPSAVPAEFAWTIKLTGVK
Description: Inhibitory activity against alpha-L-fucosidase in human placenta at PH of 6.5; Mixed Inhibition type.

As usually defined, the Ki is a dissociation constant, usually derived from enzyme kinetics or from competition with a known ligand. The low end stands for higher affinity, the high end for lower affinity. The compound `CC(=O)NCSC1OC(C)C(O)C(O)C1O` (stereo unspecified) had an inhibitory constant (Ki) of 3.9 µM.

(Values after ChEMBL document CHEMBL1130678, “Thio-sugars. IV: Design and synthesis of S-linked fucoside analogs as a new class of alpha-L-fucosidase inhibitors” (Bioorg Med Chem Lett, 1998).)
